According to patent publication US6528675B1, “Cyanohydrin ethers and esters as high-sensitivity enzyme substrates” (The Regents of the University of California, priority 2001, dated 2003):
One block for each molecule: values may come before it.

Key:
cytochrome P450 = test: Substrate response to P450 enzyme activity, rat microsomal enzyme preparation; assay type: biochemical, rats; conditions: pH 7.6, 37° C., substrate 10 mM final concentration, average of three tests
From the text: This example compares four cytochrome P450 substrates within the scope of this invention with two cytochrome P450 substrates that are outside the scope of this invention. The four invention substrates were methoxynaphthalen-2-yl acetonitrile (whose synthesis is shown in Example 8 above and which is designated below as Compound III), ethoxynaphthalen-2-yl acetonitrile (synthesis shown in Example 9, Compound IV), benzoxynaphthalen-2-yl acetonitrile (synthesis shown in Example 10, Compound V), and pentoxynaphthalen-2-yl acetonitrile (synthesis shown in Example 11, Compound VI). The substrates outside the scope of the invention were ethoxyresorufin (designated below as Compound A) and pentoxyresorufin (designated below as Compound B). The structures of these last two substrates are as follows: [drawing 56]
All substrates were tested against a microsomal enzyme preparation from 8-week-old Fisher […] rats, by first combining 890 mL of the preparation with 2 mL of phosphate buffer (pH 7.6, 0.2 M) and incubating the mixture at 37° C. for 5 minutes. The substrate (10 mL) was then added (10 mM final concentration), followed by an appropriate signal generating system (100 mL). The samples were immediately read by fluorometer at 460 nm for 1 minute with excitation at 330 nm. The results in terms of specific activity, both with and without the enzyme system, are shown in Table VII, in which each entry represents an average of three tests.

[1] = Change in optical properties, UV absorption of esters and hydrolysis products; assay type: physicochemical; conditions: for ε (molar absorptivity): in M-1 cm-1 (unit assumed)
From the text: The substrates representing the invention were (R/S)-acetic acid cyano-(6-methoxynaphthalen-2-yl)-methyl ester (the title compound of Synthesis Example 1 above) and (trans/cis)-3-(2,2-dichlorovinyl)-2,2-dimethylcyclopropanecarboxylic acid cyano-(6-methoxynaphthalen-2-yl)-methyl ester (the title compound of Synthesis Example 2 above).

[2] = Change in optical properties, fluorescence of esters and hydrolysis products; assay type: physicochemical
From the text: The substrates representing the invention were (R/S)-acetic acid cyano-(6-methoxynaphthalen-2-yl)-methyl ester (the title compound of Synthesis Example 1 above) and (trans/cis)-3-(2,2-dichlorovinyl)-2,2-dimethylcyclopropanecarboxylic acid cyano-(6-methoxynaphthalen-2-yl)-methyl ester (the title compound of Synthesis Example 2 above). The substrates of the prior art were methylumbelyl acetate (for detection by fluorescence emission) and 2-naphthacetate (for detection by UV absorption) in assay solutions with different pH values. These prior art substrates were selected because both are widely used and both have aromatic systems similar to the two test compounds.
Again using tris-maleate at pH levels of 6.5, 7.5, and 8.5, fluorescence studies were performed at concentrations of 10 μM, and fluorescence of the starting esters and the hydrolysis products (hydroxycoumarin in the case of methylumbelyl acetate and 6-methoxy-naphthaldehyde in the case of the Example 1 substrate) were determined by conventional instrumentation. The results are listed in Table III in which “MUA” denotes methylumbelyl acetate, “Compound I” denotes the Example 1 substrate, “Ex” denotes the optimal excitation wavelength in nm, “Emmax” denotes the maximal emission wavelength in nm, and “RFU” denotes the relative fluorescence units multiplied by 1,000.

porcine esterase [3] = test: Sensitivity of substrate to enzyme strength; assay type: biochemical; conditions: pH 8.0, 10 μM substrate, 1 unit=1 μmol/min/mL
Protocol: This example illustrates the sensitivity of the substrate to the enzyme, and compares a substrate in accordance with the present invention to two prior art substrates. […] The enzyme was porcine esterase.
A tris-maleate buffer at pH 8.0 (0.1 M) was used. The procedure consisted of adding substrate to a test tube containing 3 mL of buffer to a final substrate concentration of 10 μM, then adding porcine esterase at strengths of 0.06, 0.09. 0.12, 0.18, 0.30, 0.60, 0.9 and 1.2 unit, in which 1 unit=1 μmol/min/mL. […] The enzyme sensitivities for each substrate and detection method were defined as the minimal amount of enzyme per mL required to produce a signal from the substrate that was at least three times greater than the background noise.

[4] = Substrate stability in buffer, UV detection; assay type: physicochemical; conditions: 10 μM substrate, no enzyme, 5-minute reading
Protocol: (§1) The same two invention substrates and two prior art substrates were tested for stability by both UV detection and fluorescence detection under typical assay conditions.
(§2) Tris maleate buffers (0.1 M) at pH ranging from 6.0 to 9.0 in intervals of 1.0 were used, and substrate was added to 10 μM final concentration. […] The fluorescence samples were read with excitation at 360 nm and emission at 460 nm (for pH 6.0), 465 nm (for pH 7.0), 485 nm (pH 8.0), and 510 nm (pH 9.0) for the methylumbelyl acetate, and with excitation at 330 nm and emission at 460 nm for the two test compounds, in all cases, the readings over 5-minute periods.

[5] = Substrate stability in buffer, fluorescence detection; assay type: physicochemical; conditions: 10 μM substrate, no enzyme, 5-minute reading
Protocol: as §1, §2

[6] = system: esterase from a rat liver microsomal preparation; test: Specific activity of esterase against substrates; assay type: biochemical, Fisher 344 rats; conditions: Rat liver microsome, pH 8.0, 10 μM substrate, fluorescence 330/460 nm
Protocol: (§3) The esterases were porcine esterase purchased from Sigma Chemical Company, St. Louis, Mo., USA, esterase from a rat liver microsomal preparation from 8-week-old Fisher 344 rats, and homogenates of Heliothis virescens from both pyrethroid-susceptible and -resistant strains of tobacco budworm. The substrate in each case was added to a tris-maleate buffer (pH 8.0, 0.1 m) to a final substrate concentration of 10 μM, followed by the addition of the enzyme preparation. The samples were then immediately read by fluorometer at 460 nm for one minute (excitation at 330 nm). The results are listed in Table VI, where “Compound I” denotes the Example 1 substrate, and “Compound II” denotes the Example 4 substrate.

[7] = system: homogenate of Heliothis virescens, pyrethroid-resistant strain; test: Specific activity of esterase against substrates; assay type: biochemical; conditions: H. virescens (resistant), pH 8.0, 10 μM substrate, fluorescence 330/460 nm
Protocol: as §3

[8] = system: homogenate of Heliothis virescens, pyrethroid-susceptible strain; test: Specific activity of esterase against substrates; assay type: biochemical; conditions: H. virescens (susceptible), pH 8.0, 10 μM substrate, fluorescence 330/460 nm
Protocol: as §3

porcine esterase [9] = test: Specific activity of esterase against substrates; assay type: biochemical; conditions: pH 8.0, 10 μM substrate, fluorescence 330/460 nm
Protocol: as §3

melting point: 37 to 38 °C
Molecule: CC(=O)OC(C#N)c1ccc2ccccc2c1 (racemic)

OD (optical density) ([1]; tris-maleate pH 6.5, 10 μM): 0.473 | λmax ([1]; tris-maleate pH 6.5, 10 μM): 314 nm | ε (molar absorptivity) ([1]; tris-maleate pH 6.5, 10 μM): 11,870 | OD (optical density) ([1]; tris-maleate pH 7.5, 10 μM): 0.468 | λmax ([1]; tris-maleate pH 7.5, 10 μM): 313 nm | ε (molar absorptivity) ([1]; tris-maleate pH 7.5, 10 μM): 11,700 | OD (optical density) ([1]; tris-maleate pH 8.5, 10 μM): 0.465 | λmax ([1]; tris-maleate pH 8.5, 10 μM): 314 nm | ε (molar absorptivity) ([1]; tris-maleate pH 8.5, 10 μM): 11,630 | emission peak ([2]; over the three pH levels tested (6.5, 7.5, 8.5)): 460 nm | Emmax (maximal emission wavelength) ([2]; tris-maleate pH 6.5, 10 μM): 450 nm | Ex (optimal excitation wavelength) ([2]; tris-maleate pH 6.5, 10 μM): 360 nm | RFU (relative fluorescence units multiplied by 1,000) ([2]; tris-maleate pH 6.5, 10 μM): 17,783 RFU | Emmax (maximal emission wavelength) ([2]; tris-maleate pH 7.5, 10 μM): 485 nm | Ex (optimal excitation wavelength) ([2]; tris-maleate pH 7.5, 10 μM): 360 nm | RFU (relative fluorescence units multiplied by 1,000) ([2]; tris-maleate pH 7.5, 10 μM): 19,250 RFU | Emmax (maximal emission wavelength) ([2]; tris-maleate pH 8.5, 10 μM): 510 nm | Ex (optimal excitation wavelength) ([2]; tris-maleate pH 8.5, 10 μM): 360 nm | RFU (relative fluorescence units multiplied by 1,000) ([2]; tris-maleate pH 8.5, 10 μM): 19,256 RFU
Molecule: COc1ccc2cc(C=O)ccc2c1 [aldehyde, 6-methoxy-2-naphthaldehyde]

melting point: 36 to 37 °C
Molecule: N#CC(OCc1ccccc1)c1ccc2ccccc2c1 (centres unmarked)

Emmax (maximal emission wavelength) ([2]; tris-maleate pH 6.5, 10 μM): 460 nm | Ex (optimal excitation wavelength) ([2]; tris-maleate pH 6.5, 10 μM): 330 nm | RFU (relative fluorescence units multiplied by 1,000) ([2]; tris-maleate pH 6.5, 10 μM): 18,830 RFU | Emmax (maximal emission wavelength) ([2]; tris-maleate pH 7.5, 10 μM): 460 nm | Ex (optimal excitation wavelength) ([2]; tris-maleate pH 7.5, 10 μM): 330 nm | RFU (relative fluorescence units multiplied by 1,000) ([2]; tris-maleate pH 7.5, 10 μM): 19,025 RFU | Emmax (maximal emission wavelength) ([2]; tris-maleate pH 8.5, 10 μM): 460 nm | Ex (optimal excitation wavelength) ([2]; tris-maleate pH 8.5, 10 μM): 330 nm | RFU (relative fluorescence units multiplied by 1,000) ([2]; tris-maleate pH 8.5, 10 μM): 19,195 RFU
Molecule: hydroxycoumarin [HO-coumarin]

The next lines start with the molecule.

Molecule: CCOc1ccc2nc3ccc(=O)cc-3oc2c1 [Compound A, ethoxyresorufin, reference compound]
Specific Activity, With Enzyme System (cytochrome P450): 89.0 ± 4.6 pmol/min/mg protein | Specific Activity, Without Enzyme System (cytochrome P450): 52.2 ± 1.9 pmol/min/mg protein

Molecule: CCOC(C#N)c1ccc2ccccc2c1 (centres unmarked) [Compound IV, Ethoxynaphthalene-2-yl Acetonitrile]
Specific Activity, With Enzyme System (cytochrome P450): 292.6 ± 16.2 pmol/min/mg protein | Specific Activity, Without Enzyme System (cytochrome P450): 40.0 ± 1.2 pmol/min/mg protein | melting point: 53 to 54 °C

Molecule: COC(C#N)c1ccc2ccccc2c1 (centres unmarked) [Compound III, Methoxynaphthalene-2-yl Acetonitrile]
Specific Activity, With Enzyme System (cytochrome P450): 275.8 ± 20.5 pmol/min/mg protein | Specific Activity, Without Enzyme System (cytochrome P450): 45.9 ± 3.0 pmol/min/mg protein | melting point: 47 to 48 °C

Molecule: N#CC(OC(=O)C/C=C/c1ccccc1)c1ccc2ccccc2c1 (centres unmarked)
melting point: 74 to 75 °C

Molecule: CC(=O)Oc1ccc2c(C)cc(=O)oc2c1 [MUA, methylumbelyl acetate, reference compound]
Emmax (maximal emission wavelength) ([2]; tris-maleate pH 6.5, 10 μM): 366 nm | Ex (optimal excitation wavelength) ([2]; tris-maleate pH 6.5, 10 μM): 330 nm | RFU (relative fluorescence units multiplied by 1,000) ([2]; tris-maleate pH 6.5, 10 μM): 2,672 RFU | Emmax (maximal emission wavelength) ([2]; tris-maleate pH 7.5, 10 μM): 366 nm | Ex (optimal excitation wavelength) ([2]; tris-maleate pH 7.5, 10 μM): 330 nm | RFU (relative fluorescence units multiplied by 1,000) ([2]; tris-maleate pH 7.5, 10 μM): 1,350 RFU | Emmax (maximal emission wavelength) ([2]; tris-maleate pH 8.5, 10 μM): 366 nm | Ex (optimal excitation wavelength) ([2]; tris-maleate pH 8.5, 10 μM): 330 nm | RFU (relative fluorescence units multiplied by 1,000) ([2]; tris-maleate pH 8.5, 10 μM): 1,600 RFU | Sensitivity (minimal amount of enzyme per mL giving a signal at least three times background noise) (porcine esterase [3]; Fluorescence detection): 0.0005

Molecule: CCCCCOc1ccc2nc3ccc(=O)cc-3oc2c1 [Compound B, pentoxyresorufin, reference compound]
Specific Activity, With Enzyme System (cytochrome P450): 62.5 ± 5.2 pmol/min/mg protein | Specific Activity, Without Enzyme System (cytochrome P450): 41.8 ± 2.2 pmol/min/mg protein

Molecule: COc1ccc2cc(C(C#N)OC(=O)C3C(C=C(Cl)Cl)C3(C)C)ccc2c1 (mixture of isomers) [Compound II, (trans/cis)-3-(2,2-Dichlorovinyl)-2,2-dimethylcyclopropanecarboxylic Acid Cyano-(6-methoxynaphthalen-2-yl) Methyl Ester]
Substrate stability, UV Absorption ([4]; pH 6, tris maleate 0.1 M): <0.01 mAbs/min | Substrate stability, UV Absorption ([4]; pH 7, tris maleate 0.1 M): <0.01 mAbs/min | Substrate stability, UV Absorption ([4]; pH 8, tris maleate 0.1 M): <0.01 mAbs/min | Substrate stability, UV Absorption ([4]; pH 9, tris maleate 0.1 M): 0.05 mAbs/min | Substrate stability, Fluorescence ([5]; pH 6, tris maleate 0.1 M): <1 pmol/min | Substrate stability, Fluorescence ([5]; pH 7, tris maleate 0.1 M): <1 pmol/min | Substrate stability, Fluorescence ([5]; pH 8, tris maleate 0.1 M): <1 pmol/min | Substrate stability, Fluorescence ([5]; pH 9, tris maleate 0.1 M): 10 pmol/min | Specific Activity [6]: 270 ± 18 pmol/min/mg protein | Specific Activity [7]: 840 ± 22 pmol/min/mg protein | Specific Activity [8]: 150 ± 9 pmol/min/mg protein | Specific Activity (porcine esterase [9]): 142,000 ± 520 pmol/min/mg protein | Specific Activity, With Enzyme System (cytochrome P450): 102.4 ± 7.5 pmol/min/mg protein | Specific Activity, Without Enzyme System (cytochrome P450): 33.4 ± 2.0 pmol/min/mg protein

Molecule: CCC1OC1CC(=O)OC(C#N)c1ccc2ccccc2c1 (centres unmarked)
melting point: 60 to 61 °C

Molecule: CC(=O)Oc1ccc2ccccc2c1 [Compound 2-NA, 2-naphthacetate, reference compound]
OD (optical density) ([1]; tris-maleate pH 6.5, 10 μM): 0.14 | ε (molar absorptivity) ([1]; tris-maleate pH 6.5, 10 μM): 3,500 | OD (optical density) ([1]; tris-maleate pH 7.5, 10 μM): 0.141 | ε (molar absorptivity) ([1]; tris-maleate pH 7.5, 10 μM): 3,500 | OD (optical density) ([1]; tris-maleate pH 8.5, 10 μM): 0.133 | ε (molar absorptivity) ([1]; tris-maleate pH 8.5, 10 μM): 3,300 | Substrate stability, UV Absorption ([4]; pH 6, tris maleate 0.1 M): <0.01 mAbs/min | Substrate stability, UV Absorption ([4]; pH 7, tris maleate 0.1 M): 0.05 mAbs/min | Substrate stability, UV Absorption ([4]; pH 8, tris maleate 0.1 M): 0.44 mAbs/min | Substrate stability, UV Absorption ([4]; pH 9, tris maleate 0.1 M): 0.555 mAbs/min | Sensitivity (minimal amount of enzyme per mL giving a signal at least three times background noise) (porcine esterase [3]; UV detection): 0.002
